Measured values taken from US11427590B2, “Small molecule inhibitors of neutral sphingomyelinase 2 (nSMase2) for the treatment of neurodegenerative diseases” (The Johns Hopkins University, priority 2017, dated 2022).
Read-outs that look alike come from different tables or passages of the source.

What was measured:
human nSMase2 = human nSMase2 (Homo sapiens (Human), UniProt Q9NY59); assay: Human nSMase2 fluorescence-based activity assay; assay type: biochemical
Text: Figuera-Losada, et al. Lysate of cells expressing recombinant nSMase2 is used to catalyze the hydrolysis of sphingomyelin (SM) to ceramide and phosphorylcholine.

[1] = Phase I metabolic stability in human liver microsomes; assay type: in vitro ADME; conditions: 37° C.
Procedure: (§1) Phase I metabolic stability in both mouse and human liver microsomes was performed as described previously. Rais et al. Briefly, compounds are spiked in liver microsomes (mouse, human) and incubated in an orbital shaker at 37° C. […] Compound disappearance is monitored over time using LC/MS/MS.

[2] = Phase I metabolic stability in mouse liver microsomes; assay type: in vitro ADME; conditions: 37° C.
Procedure: as §1

rat astrocytes = assay: Inhibition of exosome release from primary astrocytes in vitro; assay type: cell-based; conditions: 0.3-10 μM, 2 h after treatment, vs DMSO (0.02%)
Procedure: The effect of nSMase2 inhibitors on the manufacturing and release of ceramide rich exosomes from primary astrocytes was investigated as previously described. Dickens, et al. Briefly, rat astrocytes are seeded onto 6-well plates at a density of 20,000 cells/well. Twenty-four hours after seeding, astrocytes are washed with PBS and the medium changed to media without FBS. Absence of FBS mimics a trophic factor withdrawal stimulus causing the release of exosomes via a nSMase2-dependent pathway. Astrocytes are then treated with nSMase2 inhibitors at concentrations in the range 0.03-30 μM. DMSO (0.02%) is used as control. Two hours after treatment, media is collected and centrifuged at 2700 g for 15 min (4° C.). Supernatant is further centrifuged at 10,000 g for 15 min (4° C.) to remove large particles such as apoptotic bodies. Astrocyte-derived extracellular vesicles (EVs) are isolated via ultracentrifugation at 100,000 g for 3 h at 4° C. Fractions containing EV are washed twice with 5 ml PBS and the final pellet resuspended in PBS. This isolation procedure results in the isolation of EVs with a narrow size range and protein markers consistent with exosomes. Dickens, et al. The number of EVs is quantified using ZetaView Nanoparticle Tracker (Particle Metrix GmBH, Meerbusch, Germany) and the corresponding ZetaVeiw software (8.03.04.01). Nanosphere size standard 100 nm (Thermo Scientific) is used to calibrate the instrument prior to sample readings. For each sample 1 mL of the supernatant is injected into the sample-carrier cell and the particle count measured at 5 positions, with 2 cycles of reading per position. Cells are washed with PBS after every sample. Mean concentration of EVs/mL (±SEM) is calculated from 6 replicates. This screening assay is reliable with a Z′=0.75.
Referring now to FIG. 4A and FIG. 4B, the ability of compound 38 and several of its analogs to inhibit exosome release in vitro was evaluated as previously described. […] Two hours after treatment, exosomes were isolated from the media and quantified using ZetaView Nanoparticle Tracker. The mean concentration of exosomes (EVs/mL±SEM) was calculated from 6 replicate experiments (see FIG. 4). […] Baseline exosome release can be variable between experiments; as a result, inhibition is always compared relative to vehicle treatment within the same experiment. Structures of compounds with their corresponding IC50s are provided in the second row of FIG. 4.

[3] = inhibition of nSMase2, read-out: IC50
[4] = inhibition of nSMase2, IC50 category A-D, read-out: Activity*

Sequence of human nSMase2 (Q9NY59 whole entry): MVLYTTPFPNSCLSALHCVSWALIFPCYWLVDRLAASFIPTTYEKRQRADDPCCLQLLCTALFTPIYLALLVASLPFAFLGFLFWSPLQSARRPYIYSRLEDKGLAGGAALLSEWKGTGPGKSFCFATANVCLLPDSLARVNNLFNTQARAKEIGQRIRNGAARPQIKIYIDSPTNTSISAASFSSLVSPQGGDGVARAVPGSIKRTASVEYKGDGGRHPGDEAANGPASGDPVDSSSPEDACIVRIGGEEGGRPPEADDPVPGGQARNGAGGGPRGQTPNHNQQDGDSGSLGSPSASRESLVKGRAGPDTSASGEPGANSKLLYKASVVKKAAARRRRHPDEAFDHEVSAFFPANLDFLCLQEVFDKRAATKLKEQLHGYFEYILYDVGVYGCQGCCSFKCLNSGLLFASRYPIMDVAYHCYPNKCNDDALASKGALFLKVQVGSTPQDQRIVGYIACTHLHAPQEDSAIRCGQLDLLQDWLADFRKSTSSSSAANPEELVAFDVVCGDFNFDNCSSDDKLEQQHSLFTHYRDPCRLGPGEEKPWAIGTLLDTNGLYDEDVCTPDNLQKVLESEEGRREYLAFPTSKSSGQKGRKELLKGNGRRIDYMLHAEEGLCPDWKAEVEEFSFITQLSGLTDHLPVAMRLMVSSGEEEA

Structure (SMILES)	IC50 (human nSMase2; [3]) [µM]	IC50 (human nSMase2; [4]) [µM]	also measured
CC(=O)Nc1cccc(-c2c(C)nc3c(N4CC[C@@H](NC(C)=O)C4)cc(C)nn23)c1 [22-PROV]	> 1	–	–
COc1ccc(-c2c(C)oc3c(N4CC[C@@H](NC(C)=O)C4)cc(C)nc23)cc1OC [8-PROV]	–	> 100	–
COc1cccc(-c2c(C)nc3c(N4CC[C@@H](NC(C)=O)C4)cc(C)nn23)c1 [20-PROV]	> 1	–	–
COc1ccc(-c2scc3c(N4CC[C@@H](NC(C)=O)C4)nc(C)nc23)cc1OC [29b-PROV]	–	> 100	–
COc1ccc(-c2nn(C)c3c(N4CC[C@@H](NC(C)=O)C4)nc(C)nc23)cc1OC [13-PROV]	–	> 100	–
CC(=O)N[C@@H]1CCN(c2cc(C)nn3c(-c4cccc(S(C)(=O)=O)c4)c(C)nc23)C1 [42-PROV]	> 1	–	–
COc1ccc(-c2c3nc(C)nc(N4CC[C@@H](NC(C)=O)C4)c3nn2C)cc1OC [12-PROV]	–	> 100	–
COc1ccc(-c2c(C)nn3c(N4CC[C@@H](NC(C)=O)C4)cc(C)nc23)cc1OC [4-PROV]	–	> 100	–
COc1ccc(-c2c(C)nn3c(N4CC[C@@H](NC(C)=O)C4)nc(C)nc23)cc1OC [36-PROV]	–	> 100	–
COc1ccc(-c2c(C)nc3c(N4CC[C@@H](NS(=O)(=O)c5ccc(Cl)cc5)C4)cc(C)nn23)cc1OC [compound 29, (R)-4-chloro-N-(1-(3-(3,4-dimethoxyphenyl)-2,6-dimethylimidazo[1,2-b]pyridazin-8-yl)pyrrolidin-3-yl)benzenesulfonamide]	–	–	Human Liver Microsome (+) NADPH Remaining at 60 min [1]: 32 ± 6%; Mouse Liver Microsome (+) NADPH % Remaining at 60 min [2]: 7 ± 2%
CC(=O)N[C@@H]1CCN(c2cc(C)nn3c(-c4ccc(O)cc4)c(C)nc23)C1 [47-PROV]	≤ 1	–	–
CC(=O)N[C@@H]1CCN(c2cc(Cl)nn3c(-c4ccc(F)cc4)c(C)nc23)C1 [18-PROV]	> 100	–	–
CC(=O)N[C@@H]1CCN(c2cc(C)nn3c(-c4ccc(OC(F)(F)F)cc4)c(C)nc23)C1 [compound 17, (R)—N-(1-(2,6-dimethyl-3-(4-(trifluoromethoxy)phenyl)imidazo[1,2-b]pyridazin-8-yl)pyrrolidin-3-yl)acetamide]	–	–	Human Liver Microsome (+) NADPH Remaining at 60 min [1]: 114 ± 4%; Mouse Liver Microsome (+) NADPH % Remaining at 60 min [2]: 72 ± 6%
CC(=O)N[C@@H]1CCN(c2cc(C)nn3c(-c4ccc5c(c4)OCO5)c(C)nc23)C1 [40-PROV]	≤ 1	–	–
COc1ccc(-c2scc3c(N4CC[C@@H](NC(C)=O)C4)nc(Cl)nc23)cc1OC [26-PROV]	–	> 100	–
CC(=O)N[C@@H]1CCN(c2cc(C)nn3c(I)c(C)nc23)C1 [23-PROV]	> 10	–	–
CC(=O)N[C@@H]1CCN(c2cc(C)nn3c(-c4cccs4)c(C)nc23)C1 [compound 13, (R)—N-(1-(2,6-dimethyl-3-(thiophen-2-yl)imidazo[1,2-b]pyridazin-8-yl)pyrrolidin-3-yl)acetamide]	–	–	Human Liver Microsome (+) NADPH Remaining at 60 min [1]: 50 ± 4%; Mouse Liver Microsome (+) NADPH % Remaining at 60 min [2]: 28 ± 2%
COc1ccc(-c2c(C)sc3c(N4CC[C@@H](NC(C)=O)C4)nc(Cl)nc23)cc1OC [25-PROV]	–	> 100	–
COc1ccc(-c2c(C)nc3c(N4CC[C@@H](NS(=O)(=O)c5ccc(C(C)=O)cc5)C4)cc(C)nn23)cc1OC [compound 23, (R)-4-acetyl-N-(1-(3-(3,4-dimethoxyphenyl)-2,6-dimethylimidazo[1,2-b]pyridazin-8-yl)pyrrolidin-3-yl)benzenesulfonamide]	–	–	Human Liver Microsome (+) NADPH Remaining at 60 min [1]: 12 ± 3%; Mouse Liver Microsome (+) NADPH % Remaining at 60 min [2]: 5 ± 1%
COc1ccc(-n2cnc3c(N4CC[C@@H](NC(C)=O)C4)ncnc32)cc1OC [6-PROV]	–	> 100	–
COc1cccc(-c2c(C)nc3c(N4CC[C@@H](NC(C)=O)C4)cc(Cl)nn23)c1 [14-PROV]	> 100	–	–

Structure (SMILES)	IC50 (human nSMase2; [3]) [µM]	IC50 (human nSMase2; [4]) [µM]	also measured
COc1ccc(-c2c(C)nc3c(N4CC[C@@H](NC(=O)C(F)(F)F)C4)cc(C)nn23)cc1OC [compound 35, (R)—N-(1-(3-(3,4-dimethoxyphenyl)-2,6-dimethylimidazo[1,2-b]pyridazin-8-yl)pyrrolidin-3-yl)-2,2,2-trifluoroacetamide]	–	–	Human Liver Microsome (+) NADPH Remaining at 60 min [1]: 113 ± 8%; Mouse Liver Microsome (+) NADPH % Remaining at 60 min [2]: 117 ± 8%
CC(=O)N[C@@H]1CCN(c2cc(C)nn3c(C)c(C)nc23)C1 [48-PROV]	> 1	–	–
COc1ccc(-c2csc3c(N4CC[C@@H](NC(C)=O)C4)nc(Cl)nc23)cc1OC [24-PROV]	–	> 100	–
COc1ccc(-c2c(C)nc3c(N4CCCC4)cc(C)nn23)cc1OC [compound 44, 3-(3,4-dimethoxyphenyl)-2,6-dimethyl-8-(pyrrolidin-1-yl)imidazo[1,2-b]pyridazine]	–	–	exosome release from astrocytes (rat astrocytes): decreased the number of exosomes released from astrocytes in a dose dependent manner; Human Liver Microsome (+) NADPH Remaining at 60 min [1]: 58 ± 4%; Mouse Liver Microsome (+) NADPH % Remaining at 60 min [2]: 1 ± 0%
COc1ccc(-c2csc3c(N4CC[C@@H](NC(C)=O)C4)ncnc23)cc1OC [27-PROV]	–	> 100	–
COc1ccc(-n2ncc3c(N4CC[C@@H](NC(C)=O)C4)nc(C)nc32)cc1OC [10-PROV]	–	> 100	–
CC(=O)N[C@@H]1CCN(c2ccnn3cc(C)nc23)C1 [15-PROV]	> 10	–	–
CC(=O)N[C@@H]1CCN(c2cc(Cl)nn3cc(C)nc23)C1 [9-PROV]	> 100	–	–
COc1ccc(-c2csc3c(N4CC[C@@H](NC(C)=O)C4)nc(C)nc23)cc1OC [30-PROV]	–	> 100	–
COc1ccc(-c2c(C)nc3c(N4CC[C@@H](NC(C)=O)C4)cc(Cl)nn23)cc1 [11-PROV]	> 100	–	–
COc1ccc(-c2c(C)nc3c(N4CC[C@@H](NC(=O)C(F)(F)c5ccccc5)C4)cc(C)nn23)cc1OC [compound 37, (R)—N-(1-(3-(3,4-dimethoxyphenyl)-2,6-dimethylimidazo[1,2-b]pyridazin-8-yl)pyrrolidin-3-yl)-2,2-difluoro-2-phenylacetamide]	–	–	Human Liver Microsome (+) NADPH Remaining at 60 min [1]: 20 ± 2%; Mouse Liver Microsome (+) NADPH % Remaining at 60 min [2]: 6 ± 1%
CC(=O)Nc1cccc(-c2c(C)nc3c(N4CC[C@@H](NC(C)=O)C4)cc(Cl)nn23)c1 [19-PROV]	> 100	–	–
COc1ccc(-c2c(-c3ccc(C)cc3)nc3c(N4CC[C@@H](NC(C)=O)C4)cc(C)nn23)cc1OC [compound 62, (R)—N-(1-(3-(3,4-dimethoxyphenyl)-6-methyl-2-(p-tolyl)imidazo[1,2-b]pyridazin-8-yl)pyrrolidin-3-yl)acetamide]	–	–	exosome release from astrocytes (rat astrocytes): decreased the number of exosomes released from astrocytes in a dose dependent manner; Human Liver Microsome (+) NADPH Remaining at 60 min [1]: 28 ± 5%; Mouse Liver Microsome (+) NADPH % Remaining at 60 min [2]: 53 ± 6%
COc1ccc(-n2cnc3c(N4CC[C@@H](NC(C)=O)C4)nc(C)nc32)cc1OC [2-PROV]	–	> 100	–
COc1cc(N2CC[C@@H](NC(C)=O)C2)c2nc(C)c(-c3ccc(OC)c(OC)c3)n2n1 [38-PROV]	> 1	–	–
COc1ccc(-c2c(C)sc3c(N4CC[C@@H](NC(C)=O)C4)nc(C)nc23)cc1OC [29a-PROV]	–	> 100	–
COc1ccc(-c2c(C)sc3c(N4CC[C@@H](NC(C)=O)C4)ncnc23)cc1OC [28-PROV]	–	> 100	–
COc1ccc(-n2c(C)nc3c(N4CC[C@@H](NC(C)=O)C4)ncnc32)cc1OC [5-PROV]	–	> 100	–
COc1ccc(-c2c(C)nc3c(N4CC[C@@H](NS(=O)(=O)c5ccc(C)cc5)C4)cc(C)nn23)cc1OC [compound 22, (R)—N-(1-(3-(3,4-dimethoxyphenyl)-2,6-dimethylimidazo[1,2-b]pyridazin-8-yl)pyrrolidin-3-yl)-4-methylbenzenesulfonamide]	–	–	Human Liver Microsome (+) NADPH Remaining at 60 min [1]: 29 ± 1%; Mouse Liver Microsome (+) NADPH % Remaining at 60 min [2]: 2 ± 1%
COc1ccc(-c2c(C)nc3c(N4CC[C@@H](NS(=O)(=O)c5ccccc5)C4)cc(C)nn23)cc1OC [compound 28, (R)—N-(1-(3-(3,4-dimethoxyphenyl)-2,6-dimethylimidazo[1,2-b]pyridazin-8-yl)pyrrolidin-3-yl)benzenesulfonamide]	–	–	Human Liver Microsome (+) NADPH Remaining at 60 min [1]: 43 ± 6%; Mouse Liver Microsome (+) NADPH % Remaining at 60 min [2]: 20 ± 1%
COc1ccc(-n2c(C)nc3c(N4CC[C@@H](NC(C)=O)C4)nc(C)nc32)cc1OC [3-PROV]	–	> 100	–
